Values after ≈ are worked out from the molar mass of the structure shown. Structures can show the parent of a compound that is named as a salt. Where two headings read alike, the source gives them in different places.
Experiments:
[1] = Saturation concentration of gemcitabine in aqueous ethyl alcohol solutions (Example 3); assay type: physicochemical; conditions: interpolation (polynomial of the 6th degree), about 66 percent by volume of ethyl alcohol, pH 10±0.5
Procedure: In order to determine the saturation concentration of gemcitabine in aqueous ethyl alcohol solutions, gemcitabine solutions with various volume percentages of ethyl alcohol were prepared and analyzed.
Gemcitabine hydrochloride was placed beforehand in the mixing vessel, reacted with a stoichiometric amount of alkalizer (1N sodium hydroxide) dissolved in water, then treated each time with 80% of the required amounts of water for injection as determined in preliminary tests as well as with the amounts of ethyl alcohol required each time.
The components contained in the batch were subsequently dissolved at room temperature (19-23° C.) while agitating for 6 hours such that an undissolved sediment of gemcitabine hydrochloride remained in the mixing vessel. The pH of the batch was determined potentiometrically and, when required, adjusted to a pH of 10 with 1N sodium hydroxide or 1N hydrochloric acid, so as to achieve at this pH a complete conversion of the gemcitabine hydrochloride to the dissolved gemcitabine base.
The batch was stored for 24 hours at 19-23° C. […] These batches were then filtered until free of particles, and the gemcitabine content was determined by HPLC.

[2] = Maximum solubility of gemcitabine hydrochloride at 66 vol. % ethyl alcohol after dissolving at 35-45° C. (Example 4); assay type: physicochemical; conditions: dissolved at 35-45° C. for 6 hours, cooled, stored 24 hours at 19-23° C.
Procedure: The maximum solubility of gemcitabine hydrochloride was determined with further use of 1N sodium hydroxide, water for injection and absolute ethyl alcohol in a proportion of 66 percent by volume recognized as optimum for that purpose, at increased solution temperatures (35-45° C. for 6 hours under agitation) and subsequent cooling to room temperature (19-23° C.), and then stored for 24 hours at 19-23° C.

[3] = cited from earlier work

Row | maximum gemcitabine solubility ([1]; hydrochloride) [mg/mL] | content in particle-free supernatant (maximum solubility) ([2]; hydrochloride) [mg/mL] | solubility at 6 h ([1]; aqueous ethyl alcohol solution, 21 °C, pH 10, aqueous with cosolvent or surfactant or cyclodextrin, thermodynamic from solid, read-out: maximum gemcitabine solubility) [mg/mL] | solubility at 6 h ([2]; aqueous ethyl alcohol solution, aqueous with cosolvent or surfactant or cyclodextrin, thermodynamic from solid, read-out: content in particle-free supernatant (maximum solubility)) [mg/mL] | Compound | solubility in water ([3]; pH of 5) [mg/mL] | solubility in water ([3]; pH of 7) [mg/mL] | solubility in water ([3]; pH of 9) [mg/mL] | solubility in water ([3]; pH range of 2.7 to 3.3)
1 | 55 | 108.3 | – | – | Nc1ccn([C@@H]2O[C@H](CO)[C@@H](O)C2(F)F)c(=O)n1 [gemcitabine hydrochloride] | – | – | – | –
2 | – | – | 50 (≈ 190 mM) | 95.1 (≈ 361 mM) | Nc1ccn([C@@H]2O[C@H](CO)[C@@H](O)C2(F)F)c(=O)n1 [gemcitabine, 2′-deoxy-2′,2′-difluorocytidine] | 16.0 (≈ 60.8 mM) | 15.3 (≈ 58.1 mM) | 15.8 (≈ 60 mM) | about 38 mg/ml

Source: patent US20060089329A1, “Ready-to-use gemcitabine solution concentrates” (priority 2004, published 2006)
